Literature values in patent US12357650B2, “Methods and compositions for cancer therapies that include delivery of halogenated thymidines and thymidine phosphorlylase inhibitors in combination with radiation” (Shuttle Pharmaceuticals, Inc., priority 2017, dated 2025).

System: cells
Conditions: as compared to cells without the defective DNA; cited from earlier work

In the case of O=c1[nH]c(=O)n([C@H]2C[C@H](O)[C@@H](CO)O2)cc1Br [BUdR, 5-bromo-2′-deoxyuridine], the “increase in susceptibility of cells to the lethal effects of RT” value is given as “two-three fold”.
